Source: patent publication US4377697A, “Imidazole hydrazone and hydrazine derivatives” (priority 1982, dated 1983)
≈ marks a conversion by molar mass, not a printed value. Where a name gives a salt, the structure may show the parent alone. Read-outs that look alike come from different tables or passages of the source.

How the values were obtained:
Bacterioides fragilis = assay: in vitro anti-anaerobic assay, minimum inhibitory concentration; assay type: cell-based, Bacterioides fragilis (ATCC 23745); details: ATCC 23745, 24 hours at 37° C., range of three runs; for MIC: 24 h, read-out: Minimum Inhibitory Concentrations, Bacterioides fragilis
Method: (§1) The results of in vitro assays for a number of compounds according to the invention are given in Table 1, which follows the Examples.
(§2) These tests were conducted by mixing a series of decreasing amounts of the compound under test with a liquid nutrient medium that had been inoculated with one of the test organisms. These preparations were incubated for 24 hours at 37° C. under anaerobic conditions and were then examined for the presence of growth as indicated by the turbidity in the liquid medium. Results were recorded as the lowest concentrations, in mg/l, of test compound that prevented growth of the test organisms (minimal inhibitory concentrations). Each test was run three times and the range of results are indicated.

Propionibacterium acnes = assay: as above; assay type: cell-based, Propionibacterium acnes (ATCC 6919); details: Cutibacterium acnes, ATCC6919, ATCC 6919, 24 hours at 37° C., range of three runs, read-out: Minimum Inhibitory Concentrations, Propionibacterium acnes
Method: as §1, §2

Clostridium sporogenes = assay: as above; assay type: cell-based, Clostridium sporogenes (ATCC 19404); details: ATCC 19404, 24 hours at 37° C., range of three runs; for MIC: Clostridium sporogenes, ATCC19404, 24 h, read-out: Minimum Inhibitory Concentrations, Clostridium sporogenes
Method: as §1, §2

[1] = tested on: Desulfovibrio desulfuricans; assay: in vitro assay against non-pathogenic anaerobe, minimum inhibitory concentration; assay type: cell-based; details: 24 hours at 37° C., anaerobic, range of three runs; for MIC: Desulfovibrio desulfuricans, 24 h
Method: These preparations were incubated for 24 hours at 37° C. under anaerobic conditions and were then examined for the presence of growth as indicated by the turbidity in the liquid medium. […] The tests were conducted as described for the pathogenic organisms discussed above.

Epidermophyton floccosom = assay: in vitro anti-fungal assay, minimum inhibitory concentration; assay type: cell-based, Epidermophyton floccosum; details: aerobic, 30° C., in duplicate, read-out: Minimum Inhibitory Concentrations, Epidermophyton floccosom
Method: as §2
(§3) The tests were conducted as described for the anaerobic bacteria with the exception that the organisms were incubated aerobically and kept at 30° C., apart from C.albicans which was kept at 37° C. Each test was run in duplicate.

Trichophyton rubrum = assay: as above; assay type: cell-based; details: aerobic, 30° C., in duplicate, read-out: Minimum Inhibitory Concentrations, Trichophyton rubrum
Method: as §2, §3

Candida albicans = assay: as above; assay type: cell-based
Method: as §2, §3

Microsporum canis = assay: as above; assay type: cell-based; details: aerobic, 30° C., in duplicate, read-out: Minimum Inhibitory Concentrations, Microsporum canis
Method: as §2, §3

[2] = tested on: Trichophyton mentagrophytes; assay: as above; assay type: cell-based; details: aerobic, 30° C., in duplicate, read-out: Minimum Inhibitory Concentrations, Trichophyton mentagrophytes
Method: as §2, §3

anaerobic bacteria = details: known from the literature; cited from earlier work
[3] = reported in the literature; cited from earlier work
[4] = AIP-BREWER, read-out: Minimum Inhibitory Concentrations, D.desulfuricans AIP-BREWER
[5] = API SW2, read-out: Minimum Inhibitory Concentrations, D.desulfuricans API SW2
[6] = API-CORE, read-out: Minimum Inhibitory Concentrations, Desulfovibrio desulfuricans API-CORE
[7] = strain 3153, aerobic, 37° C., in duplicate, read-out: Minimum Inhibitory Concentrations, C.albicans 3153
[8] = strain A, aerobic, 37° C., in duplicate, read-out: Minimum Inhibitory Concentrations, Candida albicans A
[9] = strain B, aerobic, 37° C., in duplicate, read-out: Minimum Inhibitory Concentrations, C.albicans B
[10] = strain GB, aerobic, 37° C., in duplicate, read-out: Minimum Inhibitory Concentrations, C.albicans GB

MIC (Trichophyton rubrum) [µg/mL]	MIC (Microsporum canis) [µg/mL]	MIC [2] [µg/mL]	MIC (Candida albicans; [7]) [µg/mL]	MIC (Candida albicans; [8]) [µg/mL]	MIC (Candida albicans; [9]) [µg/mL]	SMILES	MIC (Bacterioides fragilis) [µg/mL]	MIC (Propionibacterium acnes) [µg/mL]	MIC (Clostridium sporogenes) [µg/mL]	MIC [1, 4] [µg/mL]	MIC [1, 5] [µg/mL]	MIC [1, 6] [µg/mL]	also measured
						Clc1ccc(NN=C2c3ccccc3CCCCC2n2ccnc2)c(Cl)c1 (centres unmarked) [1 (d), 6-(1H-Imidazol-1-yl)-7,8,9,10-tetrahydro-5(6H)-benzocyclooctanone, 2,4-dichlorophenylhydrazone hydrochloride]	1 to 2.5	0.5 to 2.5	0.5 to 0.75	0.5 to 1	0.5 to 0.75	0.5 to 2.5	
12.5	12.5	25	12.5	6.2	6.2	Clc1cc(Cl)c(NN=C2c3ccsc3CCCC2n2ccnc2)c(Cl)c1 (centres unmarked) [3 (l), 5-(1H-Imidazol-1-yl)-5,6,7,8-tetrahydro-4H-cyclohepta[b]thiophen-4-one,2,4,6-trichlorophenylhydrazone hydrogen oxalate]							MIC (Epidermophyton floccosom): 6.2 µg/mL
1.5	6.2	> 100	12.5	6.2	6.2	Clc1cc(Cl)c(NN=C2c3ccccc3CCCC2n2ccnc2)c(Cl)c1 (centres unmarked) [3 (d), 6-(1H-Imidazol-1-yl)-6,7,8,9-tetrahydro-5-benzocycloheptanone, 2,4,6-trichlorophenylhydrazone hydrogen oxalate]							MIC (Candida albicans; [10]): 12.5 µg/mL
						Clc1ccc(NN=C2c3sccc3CCCC2n2ccnc2)c(Cl)c1 (centres unmarked) [1 (j), 7-(1H-Imidazol-1-yl)-4,5,6,7-tetrahydro-8H-cyclohepta[b]-thiophen-8-one, 2 ,4-dichlorophenylhydrazone hydrogen oxalate]	0.75 to 1	5	1 to 2.5	0.5 to 0.75	0.75 to 1	0.75 to 1	
						Clc1ccc(NN=C2c3ccccc3CCCC2n2ccnc2)c(Cl)c1 (centres unmarked) [1 (a), 6-(1H-imidazol-1-yl)6,7,8,9-tetrahydro-5-benzocycloheptanone, 2,4-dichlorophenylhydrazone, hydrogen oxalate]	1 to 2.5	2.5	0.5 to 2.5				Minimum Inhibitory Concentrations, D.desulfuricans AIP-BREWER ([1]; AIP-BREWER): 0.5 mg/L; Minimum Inhibitory Concentrations, D.desulfuricans API SW2 ([1]; API SW2): 0.5 mg/L
						Cc1ncc([N+](=O)[O-])n1CCO [Metronidazole, metronidazole, reference compound]	0.5 (≈ 2.92 µM)	> 100	0.5 (≈ 2.92 µM)	0.5 (≈ 2.92 µM)	0.5 (≈ 2.92 µM)	0.5 (≈ 2.92 µM)	activity against anaerobic bacteria (anaerobic bacteria): active against anaerobic bacteria; teratogenicity [3]: teratogenic
6.2	3.1	3.1	12.5	12.5	12.5	Cl.Clc1cc(Cl)c(NN=C2c3ccccc3OCCC2n2ccnc2)c(Cl)c1 (centres unmarked) [3 (i), 3,4-Dihydro-4-(1H-imidazol-1-yl)-1-benzoxepin-5(2H)-one, 2,4,6-trichlorophenylhydrazone hydrochloride]							MIC (Epidermophyton floccosom): 3.1 µg/mL
						Clc1cc(Cl)c(NN=C2c3ccccc3CCCCC2n2ccnc2)c(Cl)c1 (centres unmarked) [3 (c), 6-(1H-Imidazol-1-yl)-7,8,9,10-tetrahydro-5(6H)-benzocyclooctanone, 2,4,6-trichlorophenylhydrazone hydrochloride]	2.5	2.5	0.5 to 1	0.5 to 0.75	0.5 to 0.75	0.75 to 1	
						Clc1ccc(NN=C2c3ccccc3CCCC2n2ccnc2)c(Cl)c1 (centres unmarked) [1 (b), 6-(1H-imidazol-1-yl)-6,7,8,9-tetrahydro-5-benzocycloheptanone, 2,4-dichlorophenylhydrazone, hydrochloride]				0.5 to 0.75	0.5 to 1	0.5	Minimum Inhibitory Concentrations, Bacterioides fragilis (Bacterioides fragilis; hydrochloride): 0.5 to 1.0 mg/L; Minimum Inhibitory Concentrations, Clostridium sporogenes (Clostridium sporogenes; hydrochloride): 0.5 to 1.0 mg/L

SMILES	MIC (Trichophyton rubrum) [µg/mL]	MIC (Microsporum canis) [µg/mL]	MIC [2] [µg/mL]	MIC (Candida albicans; [7]) [µg/mL]	MIC (Candida albicans; [8]) [µg/mL]	MIC (Candida albicans; [9]) [µg/mL]	MIC (Bacterioides fragilis) [µg/mL]	MIC (Propionibacterium acnes) [µg/mL]	MIC (Clostridium sporogenes) [µg/mL]	MIC [1, 4] [µg/mL]	MIC [1, 5] [µg/mL]	MIC [1, 6] [µg/mL]	also measured
Clc1ccc(COC(Cn2ccnc2)c2ccc(Cl)cc2Cl)c(Cl)c1 (centres unmarked) [Miconazole, reference compound]	3.1 (≈ 7.45 µM)	6.2 (≈ 14.9 µM)	1.5 (≈ 3.6 µM)										MIC (Epidermophyton floccosom): 6.2 µg/mL (≈ 14.9 µM); MIC (Candida albicans; read-out: Minimum Inhibitory Concentrations, C.albicans 3153): 12.5 µg/mL (≈ 30 µM); MIC (Candida albicans; read-out: Minimum Inhibitory Concentrations, C.albicans B): 6.2 µg/mL (≈ 14.9 µM); MIC (Candida albicans; read-out: Minimum Inhibitory Concentrations, C.albicans GB): 12.5 µg/mL (≈ 30 µM); MIC (Candida albicans; read-out: Minimum Inhibitory Concentrations, Candida albicans A): 6.2 µg/mL (≈ 14.9 µM)
Clc1cc(Cl)c(NN=C2c3ccc(Cl)cc3CCCC2n2ccnc2)c(Cl)c1 (centres unmarked) [3 (b), 2-Chloro-6-(1H-imidazol-1-yl)-6,7,8,9-tetrahydro-5-benzocycloheptanone,2,4,6-trichlorophenylhydrazone hydrochloride]		25	25	6.2	6.2	6.2	0.75 to 1	5	0.75 to 1	0.75	0.75 to 2.5	0.75 to 1	MIC (Candida albicans; [10]): 6.2 µg/mL
